From BindingDB's records for doi:10.1038/304065a0 (Hoechst Pharmaceutical Research Laboratories, 1983)

Biological target: Histamine H2 receptor (Cavia porcellus, UniProt P47747)
Sequence (P47747 whole entry): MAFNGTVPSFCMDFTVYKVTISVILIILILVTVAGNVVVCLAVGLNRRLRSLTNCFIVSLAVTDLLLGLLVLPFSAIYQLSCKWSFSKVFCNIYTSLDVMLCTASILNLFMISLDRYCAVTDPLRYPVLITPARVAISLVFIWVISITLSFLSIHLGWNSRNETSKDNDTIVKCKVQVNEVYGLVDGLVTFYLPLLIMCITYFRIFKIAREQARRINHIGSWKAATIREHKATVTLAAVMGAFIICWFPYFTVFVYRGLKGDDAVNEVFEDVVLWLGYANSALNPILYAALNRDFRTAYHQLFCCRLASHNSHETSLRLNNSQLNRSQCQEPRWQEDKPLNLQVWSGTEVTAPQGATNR

Question: With `NC(N)=Nc1nc(CSCCC(N)=NS(N)(=O)=O)cs1` as the compound, how does the Ki read?
Answer: 12 nM

Question: How did the Ki turn out when `CN/C([CH-][N+](=O)[O-])=[NH+]\CCSCc1ccc(CN(C)C)o1` was run?
Answer: 390 nM

Question: With `CNC(=S)NCCCc1cnc[nH]1` as the compound, how does the Ki read?
Answer: > 10000 nM

Question: How did the Ki turn out when `CNC(=S)NCCCCc1cnc[nH]1` [1-[4-(1H-imidazol-5-yl)butyl]-3-methylthiourea] was run?
Answer: 3000 nM

Question: Which Ki does the source give for `Cc1nc[nH]c1CCN` [2-(5-methyl-1H-imidazol-4-yl)ethan-1-amine] here?
Answer: > 10000 nM

Question: For `Cc1[nH]cnc1CSCCNC(=N)NCCCc1c[nH]cn1` [2-[3-(1H-imidazol-5-yl)propyl]-1-(2-{[(5-methyl-1H-imidazol-4-yl)methyl]sulfanyl}ethyl)guanidine], which Ki is on record?
Answer: 63 nM

Question: How did the Ki turn out when `C/N=C(\S)NCCSCc1[nH]cnc1C` [CAS_34839-70-8] was run?
Answer: 510 nM

Question: With `CN(C)CCCSC(=N)N` [[3-(carbamimidoylsulfanyl)propyl]dimethylamine] as the compound, how does the Ki read?
Answer: > 10000 nM
